Test results: publication PMC9322761, “Design, Synthesis and Biological Characterization of Histone Deacetylase 8 (HDAC8) Proteolysis Targeting Chimeras (PROTACs) with Anti-Neuroblastoma Activity” (International Journal of Molecular Sciences, 2022)
Like-named read-outs stand apart in the source and are kept apart here.

Assays:
HDAC6 = molecular target: T1, HDAC6 (Homo sapiens, UniProt Q9UBN7); assay: In vitro HDAC inhibitory activity assay, recombinant HDAC6 (fluorogenic substrate ZMAL); assay type: biochemical; set-up: purchased BPS Biosciences; details: for inhibition at 1 µM / inhibition at 10 µM: read-out: HDAC6 % inhib. at given conc.
T1 sequence (Q9UBN7 1-1215): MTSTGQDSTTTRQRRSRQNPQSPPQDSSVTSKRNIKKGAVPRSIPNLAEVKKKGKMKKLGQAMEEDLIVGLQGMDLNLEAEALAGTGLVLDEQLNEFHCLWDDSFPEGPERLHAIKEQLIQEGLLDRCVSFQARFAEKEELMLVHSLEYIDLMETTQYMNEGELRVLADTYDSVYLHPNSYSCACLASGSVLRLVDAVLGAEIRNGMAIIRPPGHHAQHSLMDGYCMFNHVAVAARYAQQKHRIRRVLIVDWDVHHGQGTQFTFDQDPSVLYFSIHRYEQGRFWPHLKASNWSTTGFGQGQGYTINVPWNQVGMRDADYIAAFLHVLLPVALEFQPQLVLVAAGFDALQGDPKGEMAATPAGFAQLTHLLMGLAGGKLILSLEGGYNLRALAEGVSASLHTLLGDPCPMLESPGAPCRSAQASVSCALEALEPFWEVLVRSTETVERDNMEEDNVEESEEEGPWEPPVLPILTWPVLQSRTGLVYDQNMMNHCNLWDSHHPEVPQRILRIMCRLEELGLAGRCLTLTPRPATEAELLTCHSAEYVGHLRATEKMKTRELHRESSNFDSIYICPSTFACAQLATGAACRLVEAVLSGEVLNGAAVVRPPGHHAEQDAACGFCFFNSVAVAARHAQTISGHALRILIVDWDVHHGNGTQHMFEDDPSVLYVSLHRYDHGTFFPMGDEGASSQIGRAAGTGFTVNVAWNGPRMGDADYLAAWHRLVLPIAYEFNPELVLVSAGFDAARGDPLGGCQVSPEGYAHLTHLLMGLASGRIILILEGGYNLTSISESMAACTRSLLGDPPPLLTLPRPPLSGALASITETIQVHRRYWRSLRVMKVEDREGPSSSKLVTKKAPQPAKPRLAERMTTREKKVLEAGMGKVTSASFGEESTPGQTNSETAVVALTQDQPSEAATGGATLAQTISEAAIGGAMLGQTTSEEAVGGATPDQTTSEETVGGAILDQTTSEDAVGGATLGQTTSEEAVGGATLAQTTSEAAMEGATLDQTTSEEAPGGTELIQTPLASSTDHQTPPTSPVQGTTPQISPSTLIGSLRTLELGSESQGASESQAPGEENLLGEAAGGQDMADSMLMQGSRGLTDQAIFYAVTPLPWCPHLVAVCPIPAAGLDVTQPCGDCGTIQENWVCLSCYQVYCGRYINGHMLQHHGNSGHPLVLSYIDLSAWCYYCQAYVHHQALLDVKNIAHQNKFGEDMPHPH
Procedure: (§1) The in vitro testing on recombinant HDACs was performed as previously described. Recombinant human HDAC1 and −6 were purchased from BPS Biosciences. The enzyme inhibition was determined by using a reported homogenous fluorescence assay. […] Fluorescence intensity was measured at an excitation wavelength of 390 nm and an emission wavelength of 460 nm in a microtiter plate reader (BMG Polarstar).
(§2) Inhibition was measured at increasing concentration and IC50 was calculated by nonlinear regression with Origin 9.0G software.

HDAC8 [1] = molecular target: T2, HDAC8 (Homo sapiens, UniProt Q9BY41); assay: In vitro HDAC8 activity assay (Fluor de Lys-HDAC8); assay type: biochemical; set-up: made in house; details: for SI (HDAC6/HDAC8): selectivity index, HDAC6 over HDAC8
T2 sequence (Q9BY41 1-377): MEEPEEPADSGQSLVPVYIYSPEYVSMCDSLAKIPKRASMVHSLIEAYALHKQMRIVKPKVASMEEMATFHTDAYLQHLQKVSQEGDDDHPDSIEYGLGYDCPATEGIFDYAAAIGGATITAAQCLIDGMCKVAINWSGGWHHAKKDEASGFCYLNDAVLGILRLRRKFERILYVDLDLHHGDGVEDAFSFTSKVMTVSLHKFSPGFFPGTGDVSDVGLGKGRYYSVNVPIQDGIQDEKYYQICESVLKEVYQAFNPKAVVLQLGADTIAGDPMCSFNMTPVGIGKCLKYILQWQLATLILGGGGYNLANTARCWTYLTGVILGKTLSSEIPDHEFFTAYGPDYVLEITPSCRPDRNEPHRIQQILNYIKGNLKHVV
Procedure: Recombinant hHDAC8 was produced by Romier et al. in Strasbourg. The HDAC8 activity assays were performed according to the commercial HDAC8 Fluorometric Drug Discovery Kit (Fluor de Lys(R)-HDAC8, BML-KI178) corresponding to the instructions of the manufacturer. As substrate a tetrapeptide connected to aminomethylcoumarin (AMC) H2N-Arg- His-Lys(Ac)-Lys(Ac)-AMC was synthesized as previously described. The enzyme was incubated for 90 min at 37 °C, with a substrate concentration of 50 µM and increasing concentrations of inhibitors. The stop-solution-containing inhibitor was added to stop the hHDAC8 activity, and Trypsin was added to release the AMC. The solution was incubated for 20 min at 37 °C to develop the assay.
as §2

HDAC1 = HDAC1 (Homo sapiens, UniProt Q13547); assay: In vitro HDAC inhibitory activity assay, recombinant HDAC1 (fluorogenic substrate ZMAL); assay type: biochemical; set-up: purchased BPS Biosciences; details: for inhibition at 1 µM / inhibition at 10 µM: read-out: HDAC1 % inhib. at given conc.
Sequence of HDAC1 (Q13547 whole entry): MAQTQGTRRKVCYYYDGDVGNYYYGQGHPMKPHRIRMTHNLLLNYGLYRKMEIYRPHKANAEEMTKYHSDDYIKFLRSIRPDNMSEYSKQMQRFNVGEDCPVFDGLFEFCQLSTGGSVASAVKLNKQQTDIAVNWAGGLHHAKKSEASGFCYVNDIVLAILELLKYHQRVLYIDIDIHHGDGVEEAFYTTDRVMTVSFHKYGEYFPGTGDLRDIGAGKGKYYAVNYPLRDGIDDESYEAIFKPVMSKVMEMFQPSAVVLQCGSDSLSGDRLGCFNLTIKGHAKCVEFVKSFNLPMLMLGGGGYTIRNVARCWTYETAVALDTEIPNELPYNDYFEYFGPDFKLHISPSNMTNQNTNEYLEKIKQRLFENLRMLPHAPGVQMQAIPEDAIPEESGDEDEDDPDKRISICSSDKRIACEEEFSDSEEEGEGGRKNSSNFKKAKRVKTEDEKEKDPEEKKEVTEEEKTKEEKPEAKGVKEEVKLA
Procedure: as §1, §2

HDAC8 [2] = molecular target: T2, HDAC8; assay: HDAC8 degradation in SK-N-BE(2)-C neuroblastoma cells (Western blot); assay type: cell-based; set-up: endogenous in cells; host or cells: SK-N-BE(2)-C; details: 24 h; cycloheximide 35 nM, PROTAC 10 μM
Procedure: Whole cell lysates from treated SK-N-BE(2)-C neuroblastoma cells were taken and the protein levels for HDAC8 and the acetylation of its substrate SMC3 were determined (Figure 6). As a control for HDAC6, we also assessed acetylation levels of α-tubulin. […] Western blot analysis was performed as described previously (Kolbinger et al.).
Figure 6 (A) SK-N-BE(2)-C neuroblastoma cells were treated for indicated time points with 10 µM of PROTACs. Degradation of HDAC8 and acetylation of HDAC8 target was analyzed via Western blot. (B) SK-N-BE(2)-C neuroblastoma cells were treated for 6 h with indicated concentrations of HyT_1p, CRBN_1b and HyT_1m. Acetylation of HDAC8 target SMC3 and HDAC6 target tubulin, as well as total HDAC8 levels, were assessed by Western blot. Quantified ac-SMC3 or ac-tubulin expression, respectively, was normalized to the respective tubulin loading control and to the solvent control (DMSO). This quantification is reflected by the numbers below each blot. […] Total HDAC6, total HDAC1, total HDAC8, and acetyl-histone H4 expression levels, were assessed by Western blot. Total GAPDH protein levels served as a loading control (LC). * unspecific bands obtained through reprobing of the membrane.

SK-N-BE(2)-C cells = assay: Colony formation assay in neuroblastoma cells; assay type: cell-based, human; details: 5 and 10 μM, treatment 96 h, then 6 days without treatment
Procedure: In order to measure the functional consequence of HDAC8 inhibition, two different cell lines were used: SK-N-BE(2)-C cells, which display MYCN amplification and non-functional p53; and IMR-32 cells having p53 wild type, which both respond with growth arrest and signs of neuronal differentiation upon knockdown or selective inhibition of HDAC8. Growth arrest was determined by colony formation and viability assays. Cells were treated with 5 and 10 μM of each of the CRBN_ based HDAC8 PROTACs having a triazole linker (CRBN_1d, CRBN_1e, CRBN_1f) for 96 h, followed by culturing for another 6 days without treatment (Figure 5A). This assesses whether the treatment impairs the clonogenic growth capacity of tumor cells, indicating effectiveness of compounds on the survival and proliferation of tumor cells.
In six-well plates, 500 cells were seeded and treated as indicated. Viable colonies were stained after a minimum of 10 days with crystal violet. For quantification, the mean intensity of each well of the 8-bit binary picture was measured with ImageJ software (U. S. National Institutes of Health, Bethesda, MD, USA; http://imagej.nih.gov/ij/ (accessed on 1 March 2022)).
Figure 5 (A) Neuroblastoma SK-N-BE(2)-C cells; Colony Assay, 10 days (compound treatment within first 96 h). Stained with crystal violet and quantified with ImageJ. (B,C) Trypan Blue assay for detection of dead cells. Neuroblastoma IMR-32 cells were either treated with 5 µM (B) or 10 µM (C). (D,E) Cell proliferation assessed via counting of viable cells. IMR-32 cells were either treated with 5 µM (D) or 10 µM (E) PROTACs. HDAC8i PCI-34501 served as a positive control, untreated (MEM) and solvent (DMSO) treated cells served as negative controls.

[3] = Table 1, PROTACs, read-out: HDAC6 IC50
[4] = Table 2, inhibitors synthesized in this paper (S1), read-out: HDAC6 IC50
[5] = Table 2, inhibitors synthesized in this paper (S1)
[6] = Table 2, inhibitors synthesized in this paper (S1), read-out: HDAC1 IC50

SMILES | inhibition at 1 µM (HDAC6) | inhibition at 10 µM (HDAC6) | IC50 (HDAC8 [1]; Table 1, PROTACs) | inhibition at 1 µM (HDAC1) | inhibition at 10 µM (HDAC1) | SI (HDAC6/HDAC8) (HDAC8 [1]) | further results
Cc1ncsc1-c1ccc(CNC(=O)[C@@H]2C[C@@H](O)CN2C(=O)[C@@H](NC(=O)CCCCCNC(=O)COc2ccc(CNc3cc(C(=O)NO)ccc3Cl)cc2)C(C)(C)C)cc1 [VHL_1l] | 8.3% | 72.4% | 720 ± 150 nM | 6% | 45.5% |  | 
COc1ccc(C(=O)NO)cc1NC(=O)c1ccc(NC(=O)CCCCCNc2cccc3c2C(=O)N(C2CCC(=O)NC2=O)C3=O)cc1 (stereo not shown) [CRBN_1a] |  |  | 90 ± 30 nM |  |  | 2 | IC50 (HDAC6): 220 ± 60 nM; IC50 (HDAC1): 4370 ± 650 nM
O=C(COc1ccc(CNc2cc(C(=O)NO)ccc2Cl)cc1)NCCCCCNc1cccc2c1C(=O)N(C1CCC(=O)NC1=O)C2=O (stereo not shown) [CRBN_1g] | 24.8% | 72.6% | 590 ± 110 nM | 10.1% | 69% |  | 
COc1ccc(C(=O)NO)cc1NC(=O)c1ccc(CNC(=O)CCCCCCCNc2cccc3c2C(=O)N(C2CCC(=O)NC2=O)C3=O)cc1 (stereo not shown) [CRBN_1c] |  |  | 150 ± 10 nM | 22.2% | 40.1% | 2 | IC50 (HDAC6): 250 ± 20 nM
COc1ccc(C(=O)NO)cc1NC(=O)c1ccc(NC(=O)CCCCCCCNC(=O)CC23CC4CC(CC(C4)C2)C3)cc1 [HyT_1n] |  |  | 390 ± 30 nM | 38.6% | 30% | 2 | IC50 (HDAC6; [3]): 820 ± 50 nM
O=C(COc1ccc(C(=O)Nc2cc(C(=O)NO)ccc2Cl)cc1)NCCCOCCOCCOCCCNc1cccc2c1C(=O)N(C1CCC(=O)NC1=O)C2=O (stereo not shown) [CRBN_1i] | 85.4% | 92.3% | 650 ± 140 nM | 20.7% | 67.4% |  | 
C[C@@H]1C[C@@H]([C@H](O)CC2CC(=O)NC(=O)C2)C(=O)[C@@H](C)C1 [cycloheximide, reference compound] |  |  |  |  |  |  | HDAC8 degradation with de novo protein synthesis inhibited (HDAC8 [2]): no effect
O=C1CCC(N2C(=O)c3cccc(NC(=O)CCCCCn4cc(COc5ccc(CNc6cc(C(=O)NO)ccc6Cl)cc5)nn4)c3C2=O)C(=O)N1 (stereo not shown) [CRBN_1f] |  |  | 250 ± 30 nM |  |  | 5 | IC50 (HDAC6; [3]): 1300 ± 300 nM; Effect on colony formation (SK-N-BE(2)-C cells): inactive; IC50 (HDAC1; Table 1, PROTACs, read-out: HDAC1 IC50): 10800 ± 700 nM
O=C(COc1ccc(C(=O)Nc2cccc(C(=O)NO)c2)cc1)NCCCOCCOCCOCCCNc1cccc2c1C(=O)N(C1CCC(=O)NC1=O)C2=O (stereo not shown) [CRBN_1j] | 46.2% | 80.9% | 4840 ± 1050 nM | 13.9% | 60% |  | 
O=C(COc1ccc(CNc2cc(C(=O)NO)ccc2Cl)cc1)NCCCOCCOCCOCCCNc1cccc2c1C(=O)N(C1CCC(=O)NC1=O)C2=O (stereo not shown) [CRBN_1h] | 33.5% | 66.8% | 330 ± 190 nM |  |  |  | IC50 (HDAC1): 3910 ± 480 nM
COc1ccc(CNc2cc(C(=O)NO)ccc2OC)cc1 [2h] |  |  |  |  |  |  | IC50 (HDAC6; [4]): 150 ± 1 nM; IC50 (HDAC8 [1]; [5]): 10 ± 1 nM; IC50 (HDAC1; [6]): > 20000 nM
COc1ccc(C(=O)NO)cc1NC(=O)c1ccc(CNC(=O)CCCCCCCNC(=O)CC23CC4CC(CC(C4)C2)C3)cc1 [HyT_1o] |  |  | 90 ± 10 nM | 9.8% | 52.6% | 4 | IC50 (HDAC6; [3]): 370 ± 30 nM
O=C(COc1ccc(CNc2cc(C(=O)NO)ccc2Cl)cc1)OCc1ccccc1 [2i] |  |  |  |  |  |  | IC50 (HDAC6; [4]): 7400 ± 600 nM; IC50 (HDAC8 [1]; [5]): 410 ± 50 nM; IC50 (HDAC1; [6]): > 20000 nM
